Experiment [1] has as its system human chordoma CM-319 cells. The experiment in a line: CCK-8 proliferation inhibition of human chordoma CM-319 cells. In kind it is cell-based. Here is the method:
Drug: chlorogenic acid raw material (99.6% purity, Sichuan Jiuzhang Biotechnology Co., Ltd.) Cell line: human chordoma cell line CM-319 cells (West China Hospital, Sichuan University)
Human chordoma CM-319 cells growing in logarithmic phase was collected, and the cell concentration was adjusted to 6×10^5 cells/ml with 1640 medium. 100 μL suspension of above cells was taken out and inoculated into 96 well plate, and each experimental group has three replicate wells. To each well, was added 100 μL corresponding drugs, so that the final concentration of chlorogenic acid in the experimental group is 10 μmol/L, 20 μmol/L, and 40 μmol/L, respectively, and then the plate was further cultured for 24 hours. In the negative control group, no drug was added, and only the same volume of 100 μL culture medium was added. After 24 hours, 10 μL CCK-8 solution was added to each well, and the culture plate was incubated in the incubator for another one hour. The absorbance of each well was measured at 450 nm by ELISA. The inhibition of chlorogenic acid on human chordoma CM-319 cells was calculated at various concentrations by using the growth inhibition rate=(absorbance of the negative control group at 450 nm—absorbance of the experimental group at 450 nm)/absorbance of the negative control group at 450 nm×100%.

In experiment [2] the test system is MDR1 expression in human chordoma CM-319 cells. As to conditions: RT-PCR, FIG. 1. The text has this: MDR1 primer (Shanghai Bioengineering Co., Ltd.); RNA extraction kit (Jiangsu biyuntian); reverse transcription synthesis kit (Jiangsu biyuntian); chlorogenic acid API (purity 99.6%, Sichuan Jiuzhang Biotechnology Co., Ltd.).
In this example, RT-PCR was used to detect the effect of different experimental groups on the expression of MDR1 in human chordoma CM-319 cells. CM-319 cells cultured in 6-well plate was collected, and RNA extraction kit was used to extract total RNA in cells, then reverse transcription synthesis kit was used to transcribe the first strand of cDNA. After that, PCR amplification reaction was used to detect the expression level of target genes in different experimental groups.

The mark [3] stands for this setting: different concentrations (10, 20, 40 μmol/L).

The structures appear in SMILES notation.

As to `O=C(/C=C/c1ccc(O)c(O)c1)O[C@@H]1C[C@](O)(C(=O)O)C[C@@H](O)[C@H]1O` [chlorogenic acid], in experiment [1] (Homo sapiens, Group 1: chlorogenic acid 10 μmol/L, 24 hours, CCK-8, read-out: Inhibitory rate of cells (%)), the inhibition at 10 µM turned out to be 36.8 ± 5.12%. Besides, in experiment [1] (Homo sapiens, Group 2: chlorogenic acid 20 μmol/L, 24 hours, CCK-8, read-out: Inhibitory rate of cells (%)), the inhibition at 20 µM came out at 48.4 ± 6.11%. The inhibition at 40 µM in experiment [1] (Homo sapiens, Group 3: chlorogenic acid 40 μmol/L, 24 hours, CCK-8, read-out: Inhibitory rate of cells (%)) is 55.5 ± 3.78%. Besides, the “inhibition of proliferation of human chordoma cells (in words)” value in experiment [1] (setting [3]) is listed as “strongly inhibit human chordoma cells”. The “expression level of MDR1 in CM-319 cells (in words)” value in experiment [2] (setting [3]) was “reduce the expression level of MDR1 in CM-319 cells to various degrees”. Besides, the “expression level of drug-resistant genes (MDR1) in cells (in words)” value in experiment [2] (high concentration 40 μmol/L, compared with other groups) is recorded as “significantly reduce the expression level of drug-resistant genes”.

The values are drawn from patent US11547715B2, “Use of chlorogenic acid in preparation of drug for treating chordoma” (SICHUAN JIUZHANG BIOLOGICAL SCIENCE AND TECHNOLOGY CO., LTD, priority 2017, dated 2023).
